Measurements reported in PubChem BioAssay AID256 (DTP/NCI, 2004).
Several values for one entry are separate records, joined by “and”; a condition that tells them apart may be missing. Equal values may be shown once. Inconclusive results and toxic doses are left out. Rule for the calls: active = survival T/C of 150% or more; inactive = T/C below 125% in these data.

Test system: CD2F1 mice, L1210 leukemia ip, survival T/C
Test: NCI In Vivo Anticancer Drug Screen. Data for tumor model L1210 Leukemia (intraperitoneal) in CD2F1 (CDF1) mice
Conditions: higher = longer survival
Procedure, shortened: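 Implant tumor; dose compound or vehicle; measure endpoint in both groups; report treated divided by control.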

[1] = endpoint: mean survival time, dose: 100.0 mg/kg/injection, schedule: Q01DX009 (ip), vehicle: saline with Tween-80
[2] = endpoint: mean survival time, dose: 100.0 mg/kg/injection, schedule: Q04DX003 (ip), vehicle: saline with Tween-80
[3] = endpoint: mean survival time, dose: 200.0 mg/kg/injection, schedule: Q01DX009 (ip), vehicle: saline with Tween-80
[4] = endpoint: mean survival time, dose: 200.0 mg/kg/injection, schedule: Q04DX003 (ip), vehicle: saline with Tween-80
[5] = endpoint: mean survival time, dose: 400.0 mg/kg/injection, schedule: Q01DX009 (ip), vehicle: saline with Tween-80
[6] = endpoint: mean survival time, dose: 400.0 mg/kg/injection, schedule: Q04DX003 (ip), vehicle: saline with Tween-80
[7] = endpoint: mean survival time, dose: 12.5 mg/kg/injection, schedule: Q01DX009 (ip), vehicle: saline with Tween-80
[8] = endpoint: mean survival time, dose: 25.0 mg/kg/injection, schedule: Q01DX009 (ip), vehicle: saline with Tween-80
[9] = endpoint: mean survival time, dose: 50.0 mg/kg/injection, schedule: Q01DX009 (ip), vehicle: saline with Tween-80
[10] = endpoint: mean survival time, dose: 100.0 mg/kg/injection, schedule: Q04DX002 (ip), vehicle: saline with Tween-80
[11] = endpoint: mean survival time, dose: 100.0 mg/kg/injection, schedule: Q01DX009 (ip), vehicle: other
[12] = endpoint: mean survival time, dose: 200.0 mg/kg/injection, schedule: Q01DX009 (ip), vehicle: other
[13] = endpoint: mean survival time, dose: 100.0 mg/kg/injection, schedule: Q04DX003 (ip), vehicle: saline sonified
[14] = endpoint: mean survival time, dose: 200.0 mg/kg/injection, schedule: Q04DX003 (ip), vehicle: saline sonified
[15] = endpoint: mean survival time, dose: 400.0 mg/kg/injection, schedule: Q04DX003 (ip), vehicle: saline sonified
[16] = endpoint: mean survival time, dose: 25.0 mg/kg/injection, schedule: Q04DX003 (ip), vehicle: saline with Tween-80

Measured: T/C

O=C(O)c1ccccc1C(=O)Nc1ccccc1C(F)(F)F
inactive: [1] 104 % of control | [2] 96 % of control | [3] 106 % of control | [4] 102 % of control | [5] 95 % of control | [6] 105 % of control

Nc1ccc2cc(O)ccc2c1
inactive: [7] 91 % of control | [8] 98 % of control | [9] 95 % of control

O=C(CC(Cl)c1ccccc1)c1ccccc1 (centres undefined)
inactive: [1] 91 % of control | [2] 94 % of control | [3] 96 % of control | [4] 98 % of control | [5] 91 % of control | [6] 90 % of control

COCCNC(=O)Nc1cccc2c1CCCC2
inactive: [2] 106 % of control | [4] 97 % of control | [6] 91 % of control

CCOC(=O)N(N=O)c1ccc2c(c1)Cc1cc([N+](=O)[O-])ccc1-2
inactive: endpoint: mean survival time, dose: 100.0 mg/kg/injection, schedule: Q01DX001 (ip), vehicle: carboxymethylcellulose (CMC) 105 % of control | endpoint: mean survival time, dose: 200.0 mg/kg/injection, schedule: Q01DX001 (ip), vehicle: carboxymethylcellulose (CMC) 105 % of control | endpoint: mean survival time, dose: 400.0 mg/kg/injection, schedule: Q01DX001 (ip), vehicle: carboxymethylcellulose (CMC) 97 % of control

O=C(O)C1OC1c1ccccc1 (centres undefined)
inactive: [1] 107 % of control | endpoint: mean survival time, dose: 100.0 mg/kg/injection, schedule: Q04DX003 (ip), vehicle: saline 91 % of control | [3] 98 % of control | endpoint: mean survival time, dose: 200.0 mg/kg/injection, schedule: Q04DX003 (ip), vehicle: saline 100 % of control | [5] 101 % of control | endpoint: mean survival time, dose: 400.0 mg/kg/injection, schedule: Q04DX003 (ip), vehicle: saline 97 % of control

O=c1cc([O-])[n+](C2OC(CO)C(O)C2O)c2sccn12 (centres undefined)
inactive: endpoint: median survival time, dose: 10.63 mg/kg/injection, schedule: Q01DX005 (ip), vehicle: water 102 % of control | endpoint: median survival time, dose: 12.5 mg/kg/injection, schedule: Q01DX005 (ip), vehicle: saline 102 % of control | endpoint: median survival time, dose: 21.25 mg/kg/injection, schedule: Q01DX005 (ip), vehicle: water 98 % of control | endpoint: median survival time, dose: 25.0 mg/kg/injection, schedule: Q01DX005 (ip), vehicle: saline 101 % of control | endpoint: median survival time, dose: 42.5 mg/kg/injection, schedule: Q01DX005 (ip), vehicle: water 98 % of control | endpoint: median survival time, dose: 50.0 mg/kg/injection, schedule: Q01DX005 (ip), vehicle: saline 98 % of control | endpoint: median survival time, dose: 85.0 mg/kg/injection, schedule: Q01DX005 (ip), vehicle: water 102 % of control | endpoint: median survival time, dose: 100.0 mg/kg/injection, schedule: Q01DX005 (ip), vehicle: saline 97 % of control | endpoint: median survival time, dose: 170.0 mg/kg/injection, schedule: Q01DX005 (ip), vehicle: water 100 % of control | endpoint: median survival time, dose: 200.0 mg/kg/injection, schedule: Q01DX005 (ip), vehicle: saline 98 % of control

CC(=O)N1CCc2cc(N)ccc21
inactive: [2] 93 % of control | [4] 95 % of control | [6] 97 % of control

CC(=O)CC(=O)Nc1nccs1
inactive: endpoint: mean survival time, dose: 25.0 mg/kg/injection, schedule: Q04DX002 (ip), vehicle: saline with Tween-80 110 % of control | endpoint: mean survival time, dose: 50.0 mg/kg/injection, schedule: Q04DX002 (ip), vehicle: saline with Tween-80 107 % of control | [10] 93 % of control

Cc1cc(Cl)ccc1NC(=O)Nc1nccs1
inactive: [7] 98 % of control | [8] 98 % of control | [9] 95 % of control | [1] 95 % of control | [3] 100 % of control

Cc1cccc(NC(=S)NC(=O)c2ccccc2)n1
inactive: endpoint: mean survival time, dose: 12.5 mg/kg/injection, schedule: Q01DX009 (ip), vehicle: other 91 % of control | endpoint: mean survival time, dose: 25.0 mg/kg/injection, schedule: Q01DX009 (ip), vehicle: other 92 % of control | endpoint: mean survival time, dose: 50.0 mg/kg/injection, schedule: Q01DX009 (ip), vehicle: other 88 % of control | [11] 88 % of control | [12] 91 % of control

Cn1ccc(=O)nc1
inactive: [13] 102 % of control | [14] 104 % of control | [15] 104 % of control

CC#CC(=O)SCCNC(=O)CC(C)(C)C
inactive: [8] 96 % of control | [16] 105 % of control | [9] 96 % of control | endpoint: mean survival time, dose: 50.0 mg/kg/injection, schedule: Q04DX003 (ip), vehicle: saline with Tween-80 96 % of control | [1] 95 % of control | [2] 106 % of control | [3] 97 % of control | [4] 98 % of control

CCCC1CC[N-]CC1.CCCC1CC[N-]CC1.[Cl][Pt+2]([Cl])([Cl])[Cl]
inactive: endpoint: mean survival time, dose: 12.5 mg/kg/injection, schedule: Q01DX009 (ip), vehicle: saline sonified 114 % of control | [16] 98 % of control

C/C=C1/OC(n2cnc3c(N)ncnc32)C(O)C1O (centres undefined)
inactive: endpoint: mean survival time, dose: 10.0 mg/kg/injection, schedule: Q01DX005 (ip), vehicle: distilled water + Tween-80 103 % of control | endpoint: mean survival time, dose: 20.0 mg/kg/injection, schedule: Q01DX005 (ip), vehicle: distilled water + Tween-80 107 % of control | endpoint: mean survival time, dose: 40.0 mg/kg/injection, schedule: Q01DX005 (ip), vehicle: distilled water + Tween-80 95 % of control | endpoint: mean survival time, dose: 80.0 mg/kg/injection, schedule: Q01DX005 (ip), vehicle: distilled water + Tween-80 100 % of control | endpoint: mean survival time, dose: 160.0 mg/kg/injection, schedule: Q01DX005 (ip), vehicle: distilled water + Tween-80 97 % of control

CC(=O)c1cccc([N+](=O)[O-])c1
inactive: [11] 105 % of control | [12] 97 % of control | endpoint: mean survival time, dose: 400.0 mg/kg/injection, schedule: Q01DX009 (ip), vehicle: other 102 % of control

COC(=O)/N=C(/N)SC
inactive: [2] 100 % of control | [4] 106 % of control | [6] 97 % of control

Nc1nc2c(ncn2-c2ccc(-c3ccccc3)cc2)c(=O)[nH]1
inactive: endpoint: mean survival time, dose: 100.0 mg/kg/injection, schedule: Q01DX001 (ip), vehicle: saline with Tween-80 93 % of control and 108 % of control | [10] 97 % of control | endpoint: mean survival time, dose: 200.0 mg/kg/injection, schedule: Q01DX001 (ip), vehicle: saline with Tween-80 87 % of control and 89 % of control | endpoint: mean survival time, dose: 200.0 mg/kg/injection, schedule: Q04DX002 (ip), vehicle: saline with Tween-80 93 % of control | endpoint: mean survival time, dose: 400.0 mg/kg/injection, schedule: Q01DX001 (ip), vehicle: saline with Tween-80 93 % of control | endpoint: mean survival time, dose: 400.0 mg/kg/injection, schedule: Q04DX002 (ip), vehicle: saline with Tween-80 89 % of control

CCCC(=O)OC1C2OP(=O)(O)OCC2OC1n1c(=S)[nH]c2c(N)ncnc21 (centres undefined)
inactive: endpoint: mean survival time, dose: 6.25 mg/kg/injection, schedule: Q01DX005 (ip), vehicle: water 93 % of control | endpoint: mean survival time, dose: 12.5 mg/kg/injection, schedule: Q01DX005 (ip), vehicle: water 97 % of control | endpoint: mean survival time, dose: 25.0 mg/kg/injection, schedule: Q01DX005 (ip), vehicle: water 101 % of control | endpoint: mean survival time, dose: 50.0 mg/kg/injection, schedule: Q01DX005 (ip), vehicle: water 93 % of control | endpoint: mean survival time, dose: 100.0 mg/kg/injection, schedule: Q01DX005 (ip), vehicle: water 101 % of control

COC(=O)C(Br)C(OC)c1ccc(Cl)cc1 (centres undefined)
inactive: [1] 101 % of control | [13] 100 % of control | [3] 95 % of control | [14] 101 % of control | [5] 97 % of control | [15] 95 % of control
